Results: the NIST ThermoML archive (doi:10.1016/j.fluid.2014.05.033)
“And” between values parts separate entries of the source, which are not always exact repeats. Equal values may be shown once.

Columns and labels:
[1] = for mass density / kinematic viscosity: 101.33 kPa, Liquid; for mass density: Vibrating tube method; for Normal melting temperature: Crystal, visual observation; for kinematic viscosity: Capillary tube (Ostwald / Ubbelohde) method
[2] = refractive index (Na D-line) (dimensionless); conditions: 101.33 kPa, Liquid, Standard Abbe refractometry

Oc1ccccc1 [phenol]
Conditions	mass density [kg/m3]
[1], 313.15 K	1058.51

Conditions	Normal melting temperature [°C]
[1]	40.90

COC(=O)Oc1ccccc1 [methyl phenyl carbonate]
Conditions	kinematic viscosity, [1] [m2/s]	mass density, [1]	refractive index, [2]
288.15 K	5.143e-06	1153.93 kg/m3	1.4991
293.15 K	4.275e-06	1148.74 kg/m3	1.4965
298.15 K	3.665e-06	1143.24 kg/m3 and 1143.63 kg/m3	1.4942
303.15 K	3.196e-06	1138.41 kg/m3	1.492
308.15 K	2.816e-06	1133.26 kg/m3	1.4896
313.15 K	2.486e-06	1128.11 kg/m3	1.4873
318.15 K	2.235e-06	1122.97 kg/m3	1.4853

Conditions	Normal melting temperature [°C]
[1]	-31.00

COc1ccccc1 [anisole]
Conditions	kinematic viscosity, [1] [m2/s]	mass density, [1]	refractive index, [2]
288.15 K	1.123e-06	996.56 kg/m3	1.5198
293.15 K	1.041e-06	991.95 kg/m3	1.5169
298.15 K	9.71e-07	989.42 kg/m3 and 989.09 kg/m3	1.5143
303.15 K	8.99e-07	983.04 kg/m3	1.5117
308.15 K	8.39e-07	978.34 kg/m3	1.5092
313.15 K	7.89e-07	973.62 kg/m3	1.5063
318.15 K	7.4e-07	969.99 kg/m3	1.5041

CO [methanol]
Conditions	kinematic viscosity, [1] [m2/s]	mass density, [1]	refractive index, [2]
288.15 K	7.51e-07	796.5 kg/m3	1.3306
293.15 K	7.03e-07	791.46 kg/m3	1.3285
298.15 K	6.6e-07	786.59 kg/m3 and 786.69 kg/m3	1.3265
303.15 K	6.21e-07	782.03 kg/m3	1.3245
308.15 K	5.79e-07	777.29 kg/m3	1.3227
313.15 K	5.49e-07	772.51 kg/m3	1.3208
318.15 K	5.19e-07	767.69 kg/m3	1.3188

Conditions	Normal melting temperature [°C]
[1]	-98.00

COC(=O)OC [dimethyl carbonate]
Conditions	kinematic viscosity, [1] [m2/s]	mass density, [1] [kg/m3]	refractive index, [2]
288.15 K	6.05e-07	1077.16	1.371
293.15 K	5.7e-07	1070.18	1.3688
298.15 K	5.41e-07	1063.26	1.3664
303.15 K	5.08e-07	1056.23	1.364
308.15 K	4.76e-07	1049.85	1.3618
313.15 K	4.56e-07	1043.04	1.3595
318.15 K	4.33e-07	1036.51	1.357

Conditions	Normal melting temperature [°C]
[1]	5.01

O=C(Oc1ccccc1)Oc1ccccc1 [diphenyl carbonate]
Conditions	mass density [kg/m3]
[1], 358.15 K	1113.12

Conditions	Normal melting temperature
[1]	80.81 °C and 81.81 °C
